# Test system: SOS test network genes
# Test: RNA expression changes of SOS test network genes after MMC perturbation (real-time qPCR)
# Type: cell-based, E. coli
smiles,measurement,setting,value
"CO[C@@]12[C@H](COC(N)=O)C3=C(C(=O)C(C)=C(N)C3=O)N1C[C@@H]1N[C@@H]12 [MMC, Mitomycin C]",Transcriptional response of all genes in the test network,0.75 μg/ml MMC vs 0.5 μg/ml MMC baseline,statistically significant upregulation
same,"Relative RNA expression change xi=[RNAi]pert/[RNAi]cont−1, dinI","0.75 μg/ml MMC vs control cells at 0.5 μg/ml MMC, gene dinI",0.334
same,"Relative RNA expression change xi=[RNAi]pert/[RNAi]cont−1, lexA","0.75 μg/ml MMC vs control cells at 0.5 μg/ml MMC, gene lexA",0.321
same,"Relative RNA expression change xi=[RNAi]pert/[RNAi]cont−1, recA","0.75 μg/ml MMC vs control cells at 0.5 μg/ml MMC, gene recA",0.496
same,"Relative RNA expression change xi=[RNAi]pert/[RNAi]cont−1, recF","0.75 μg/ml MMC vs control cells at 0.5 μg/ml MMC, gene recF",0.523
same,"Relative RNA expression change xi=[RNAi]pert/[RNAi]cont−1, rpoD","0.75 μg/ml MMC vs control cells at 0.5 μg/ml MMC, gene rpoD",0.327
same,"Relative RNA expression change xi=[RNAi]pert/[RNAi]cont−1, rpoH","0.75 μg/ml MMC vs control cells at 0.5 μg/ml MMC, gene rpoH",0.786
same,"Relative RNA expression change xi=[RNAi]pert/[RNAi]cont−1, rpoS","0.75 μg/ml MMC vs control cells at 0.5 μg/ml MMC, gene rpoS",0.672
same,"Relative RNA expression change xi=[RNAi]pert/[RNAi]cont−1, ssb","0.75 μg/ml MMC vs control cells at 0.5 μg/ml MMC, gene ssb",0.251
same,"Relative RNA expression change xi=[RNAi]pert/[RNAi]cont−1, umuDC","0.75 μg/ml MMC vs control cells at 0.5 μg/ml MMC, gene umuDC",0.834
